Experimental data reported in patent US20170107185A1, “SUBSTITUTED [1,2,4]TRIAZOLE AND IMIDAZOLE COMPOUNDS AS FUNGICIDES” (BASF SE, priority 2014, published 2017).

Test system: Botrytis cinerea
Experiment: M1 Activity against the grey mold Botrytis cinerea in the microtiterplate test (Botrci)
Type: cell-based
Conditions: 31 ppm, 405 nm, 7 days after inoculation; compound-free control 100%

Row | Structure (SMILES) | growth (relative growth in % of the pathogen)
1 | OC(Cn1cncn1)(c1ccc(-c2ccccc2)cc1Cl)C1CC1 (stereo not shown) [Compound I-1] | 0%
2 | CC(C)(C)C(O)(Cn1cncn1)c1ccc(-c2ccccc2)cc1Cl (stereo not shown) [Compound I-7] | 0%
3 | CC(O)(Cn1cncn1)c1ccc(-c2ccccc2)cc1Cl (stereo not shown) [Compound I-8] | 0%
4 | C=CCCC(O)(Cn1cncn1)c1ccc(-c2ccccc2)cc1Cl (stereo not shown) [Compound I-9] | 0%
5 | CC#CC(O)(Cn1cncn1)c1ccc(-c2ccccc2)cc1Cl (stereo not shown) [Compound I-10] | 0%
6 | CCC(O)(Cn1cncn1)c1ccc(-c2ccccc2)cc1Cl (stereo not shown) [Compound I-13] | 0%
7 | CC(F)(F)C(O)(Cn1cncn1)c1ccc(-c2ccccc2)cc1Cl (stereo not shown) [Compound I-14] | 0%
